Here are results for one compound from patent publication US10100056B2, “SHIP1 modulators and methods related thereto” (Aquinox Pharmaceuticals (Canada) Inc., priority 2013, dated 2018).

The target of assay [1] is T1, His-hSHIP1 enzyme (Homo sapiens, UniProt Q92835).
T1 construct: His
T1 sequence (Q92835 1-1189): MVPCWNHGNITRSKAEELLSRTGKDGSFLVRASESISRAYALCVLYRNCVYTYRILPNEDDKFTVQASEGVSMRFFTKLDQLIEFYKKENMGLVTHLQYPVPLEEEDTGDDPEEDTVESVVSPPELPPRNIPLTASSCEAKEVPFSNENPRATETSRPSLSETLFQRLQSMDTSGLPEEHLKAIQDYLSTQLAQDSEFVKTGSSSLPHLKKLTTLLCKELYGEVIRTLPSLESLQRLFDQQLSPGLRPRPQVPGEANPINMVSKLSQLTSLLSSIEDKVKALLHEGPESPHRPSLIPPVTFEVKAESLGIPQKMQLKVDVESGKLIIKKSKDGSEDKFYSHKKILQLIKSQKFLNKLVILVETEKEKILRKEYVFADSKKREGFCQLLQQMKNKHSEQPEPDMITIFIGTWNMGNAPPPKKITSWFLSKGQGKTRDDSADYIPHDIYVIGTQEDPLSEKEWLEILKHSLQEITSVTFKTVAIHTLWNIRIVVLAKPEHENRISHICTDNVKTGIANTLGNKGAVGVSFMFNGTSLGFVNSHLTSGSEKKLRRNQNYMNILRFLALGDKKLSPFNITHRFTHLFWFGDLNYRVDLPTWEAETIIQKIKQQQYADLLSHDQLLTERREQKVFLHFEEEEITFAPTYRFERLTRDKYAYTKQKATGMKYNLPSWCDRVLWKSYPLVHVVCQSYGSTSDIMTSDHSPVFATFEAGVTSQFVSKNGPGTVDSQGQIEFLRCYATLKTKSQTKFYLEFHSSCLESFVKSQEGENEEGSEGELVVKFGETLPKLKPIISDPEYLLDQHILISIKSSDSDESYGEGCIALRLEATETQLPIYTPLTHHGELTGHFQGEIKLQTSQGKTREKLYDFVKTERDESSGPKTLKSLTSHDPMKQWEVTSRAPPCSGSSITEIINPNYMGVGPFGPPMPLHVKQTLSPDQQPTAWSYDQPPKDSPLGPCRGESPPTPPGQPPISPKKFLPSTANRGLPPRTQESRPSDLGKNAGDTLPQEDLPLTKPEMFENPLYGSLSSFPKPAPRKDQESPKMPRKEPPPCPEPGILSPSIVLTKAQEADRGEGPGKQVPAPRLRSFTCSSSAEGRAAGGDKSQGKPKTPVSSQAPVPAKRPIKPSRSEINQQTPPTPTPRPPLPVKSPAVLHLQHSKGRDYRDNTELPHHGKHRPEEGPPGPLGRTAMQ
The assay is described as follows: His-hSHIP1 activity (phosphatase assay, IP4 substrate, Biomol Green). The assay is classed as biochemical. Set-up: key to Scoring, Approach 2 (Initial velocity Ratio): +++: higher than reference or reference - 15%; ++: reference - 16% to reference - 30%; +: reference - 31% or lower; −: inhibitor. As to conditions: second approach: ratio of initial velocities IP4 25/250 μM compared with reference compound; values without asterisk.

Assay [2] has as its system Akt phosphorylation in Molt-4 (PTEN-/SHIP1+) cells. The experiment in a line: Akt phosphorylation in lymphocytes (Western blot, IGF-1 stimulated). Set-up: key: +: inhibits Akt phosphorylation at 30 μM; −: no effect on Akt phosphorylation at 30 μM. It counts as cell-based. The settings on record: 30 μM; Molt-4 (SHIP1+) cells, IGF-1 100 ng/mL. In general terms: A western blot detects proteins with antibodies after separation by electrophoresis.

On to `C=C1CC[C@H]2[C@H](O)[C@@H]([C@@]3(C)CC[C@H](O)C[C@@H]3CCN3CCOCC3)CC[C@]12C` [Cpd. No. 46, (3aR,4R,5R,7aS)-5-((1S,2S,4S)-4-hydroxy-1-methyl-2-(2-morpholinoethyl)cyclohexyl)-7a-methyl-1-methyleneoctahydro-1H-inden-4-ol], for which, in assay [1], the “Scoring, Approach 2 (Initial velocity Ratio)” value is reported as “++”. Moreover, the “Molt-4 (SHIP+): inhibition of Akt phosphorylation” value in assay [2] was “+”.
